The Ki is a measure of affinity in units of concentration, obtained from inhibition or displacement.

In this assay the target is L-type calcium channel (Cavia porcellus). Description: Displacement of [3H]diltiazem from L-type calcium channel of guinea pig striated muscle. On the technique in general: Displacement assays read how much labelled ligand stays bound in the presence of the test substance.
As for `COc1ccc([C@@H]2Sc3ccccc3N(CCN(C)C)C(=O)[C@@H]2C)cc1` [(2R,3S)-5-(2-Dimethylamino-ethyl)-2-(4-methoxy-phenyl)-3-methyl-2,3-dihydro-5H-benzo[b][1,4]thiazepin-4-one], the Ki was 540 nM.

Turning to `COc1ccc([C@@H]2Sc3cc(OC)ccc3N(CCN(C)C)C(=O)[C@@H]2C)cc1` [(2R,3S)-5-(2-Dimethylamino-ethyl)-8-methoxy-2-(4-methoxy-phenyl)-3-methyl-2,3-dihydro-5H-benzo[b][1,4]thiazepin-4-one], the inhibitory constant (Ki) is 85 nM.

In the case of `COc1ccc([C@@H]2Sc3cc(OC)ccc3N(CCN(C)C)C(=O)[C@@H]2OC(C)=O)cc1` [Acetic acid (2S,3S)-5-(2-dimethylamino-ethyl)-8-methoxy-2-(4-methoxy-phenyl)-4-oxo-2,3,4,5-tetrahydro-benzo[b][1,4]thiazepin-3-yl ester], the Ki worked out at 42 nM.

These data come from BindingDB's records for doi:10.1016/S0960-894X(01)80767-8 (1993).
